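GI50: concentration for 50% inhibition of growth. TGI denotes the concentration required for complete inhibition of growth.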
Experiments:
Experiment in all cases: NCI-60 cell line screen, 384-well format
[1] = test system: HCT-116 colon
[2] = test system: A498 renal
[3] = test system: HL-60(TB) leukemia
[4] = test system: M14 melanoma
[5] = test system: SK-MEL-5 melanoma
[6] = test system: NCI-H23 lung
[7] = test system: NCI-H460 NSCLC
[8] = test system: NCI/ADR-RES ovarian
[9] = test system: SF-295 CNS
[10] = test system: MDA-MB-231 breast
[11] = test system: KM12 colon
[12] = test system: MALME-3M melanoma
[13] = test system: NCI-H322M lung

## Cn1cc(-c2ccc3c(c2)CCN3C(=O)Cc2cccc(C(F)(F)F)c2)c2c(N)ncnc21
[1]
  GI50: 4.12 µM
  TGI: 17.1 µM
[2]
  GI50: 0.967 µM
  TGI: 17.7 µM
[3]
  GI50: 2.21 µM
  TGI: 6.42 µM
[4]
  GI50: 5.69 µM
  TGI: 21.5 µM
[5]
  GI50: 3.86 µM
  TGI: 9.56 µM
[6]
  GI50: 4.28 µM
  TGI: 15.9 µM
[7]
  GI50: 3.9 µM
  TGI: 16.5 µM
[8]
  GI50: 5.14 µM
  TGI: 19.7 µM
[9]
  GI50: 6.87 µM
  TGI: 20.5 µM
[10]
  GI50: 4.91 µM
  TGI: 15.6 µM
[11]
  GI50: 0.547 µM
  TGI: 18.2 µM
[12]
  GI50: 2.99 µM
  TGI: 13.7 µM
[13]
  GI50: 5.96 µM
  TGI: 27.7 µM

— PubChem BioAssay (NCI)
